Tests used:
[1] = molecular target: T1, CYP3A4 (Homo sapiens, UniProt P08684); test: High density drug-drug interactions (DDI) 3 μM cocktail screen in human liver microsomes; format: in vitro ADME; conditions: 3 uM test compound, pooled human liver microsomes, probe midazolam 2 μM; read-out: % Inhibition of 3A4 metabolism at 3 uM
T1 construct: utilizes human liver microsomes together with isoform-specific clinical drug probes; from tissue; host or cells: human liver microsomes
Procedure: High Density Drug-Drug Interactions (DDI) 3 μM Cocktail Screen
A drug interaction is a situation in which a substance affects the activity of another drug, i.e. the effects are increased or decreased, or together they produce a new effect that neither produces on its own. Drug interactions may be the result of various processes but a relatively common one is where one drug affects the pharmacokinetics of another by inhibiting the cytochrome P450 that metabolises it. Because of the importance of these phenomena, assessment of the DDI potential for new chemical entities (NCEs) is considered important early on in the drug discovery process.
The DDI cocktail screen in human liver microsomes (HLM) is run in a fully automated fashion and the aim of the screen is to provide a single-point assessment of the DDI potential of new chemical entity (NCE; tested at 3 μM) against the 4 primary cytochrome P450 enzymes, 1A2, 2D6, 2C9 and 3A4.
The substrate cocktail approach for P450 DDI utilizes human liver microsomes together with isoform-specific clinical drug probes and permits the simultaneous measurement of the inhibition of P450 1A2, 2C9, 2D6 & 3A4 activities in a single incubation. This is run in high throughput with simultaneous detection of metabolites by LC-MS/MS. This method has been thoroughly tested and evaluated using standard compounds.
Appearance of the metabolite of each substrate is measured over time in the presence and absence of the NCE (test compound/inhibitor) at a concentration of 3 μM. The compounds are assessed for their inhibitory potential as a percentage value and interpreted using the following scheme.

[2] = In vitro metabolism rate determination, human liver microsome (HLM) assay; format: in vitro ADME; conditions: human liver microsomes, substrate 1 μM; read-out: HLM (intrinsic clearance)
Description: In vitro Metabolism Rate Determination (Human Liver Microsome (HLM); Rat Liver Microsome (RLM) Assay)
Many drugs are metabolised by the cytochrome P450 mono-oxygenase system. This enzyme is found in high concentrations in the liver and is bound to the endoplasmic reticulum of the hepatocyte. The enzyme system can be obtained in semi-purified state by the preparation of the hepatic microsomal fractions. Determining a compound's in vitro half-life in such a system provides a useful indicator of metabolic stability.
Methodology For In Vitro Rate Determination Using Hepatic & Supermix Microsomes
The method outlined below is for a total incubation volume of 1.5 ml.
1. The following mixture is prepared in a test tube:
2. Defrost microsomes at room temperature and add sufficient microsomes to give a final concentration of 0.5 nmol cytochrome P450/ml of incubation e.g. for a 1.5 ml incubation, the volume of microsomes to be added is:
[formula] 3. Add sufficient MilliQ water to give a total incubation volume of 1.425 ml. 4. Remove 237.5 μl of incubation mix and place in test tube for PNA positive control. Add 2.5 μl of PNA solution, whirlimix, and put tube into a rack in the thermostatically controlled shaking water bath 5. Remove 100 μl for no substrate control and dispense in test tube. Place test tube in a rack in the thermostatically controlled shaking water bath. 6. Add substrate to the incubation. The substrate should be at an initial concentration of 1 μM. The volume of substrate required in the remaining 1.162.5 ml incubation is calculated as follows:
[formula] • N.B. The volume of organic solvent added should not exceed 0.1% of the total incubation volume. 7. Remove 100 μl of incubation mix into test tube for no cofactor control. Whirlimix and put into a rack in the thermostatically controlled shaking water bath. 8. Pre-incubate the tube containing the incubation mix, also positive control and no cofactor tubes in the thermostatically controlled shaking water bath set at 37° C. for approx 5 min. 9. Add NADP to initiate reaction (75 μl to each 1.162.5 ml incubation mix, 12.5 μl to positive control tube and 5 μl to no substrate tube) and take first time point immediately. The PNA positive control, no cofactor control and no substrate tubes are incubated for the total incubation time. 10. Remove 100 μl aliquots up to 9 different sampling points from 0 to 60 min (usually 0, 3, 5, 10, 15, 20, 30, 45 & 60 min) and terminate reaction. Longer incubation times can be used, but, after 120 min the microsomes deteriorate. The reaction may be terminated by addition of organic solvent, acid or base. At the end of the incubation process the no cofactor and no substrate controls in a similar manner i.e. terminate with the same reagent. 11. PNA Positive Control Procedure: • After the final sample has been taken, remove the positive control and add 1 ml 20% TCA to this tube. Also prepare a tube containing 250 μl of a PNP standard at 50 μM, and add 1 ml 20% TCA. Whirlimix both tubes and leave for approx 5 min to allow the protein to precipitate. • Centrifuge both tubes for approx 5 min in an instrument set at 3500 rpm. Remove 1 ml of supernatant and place into clean test tubes, discard the remainder. • Add 1 ml 10M NaOH to the supernatant, whirlimix, and leave to stand for approx min. Blank spectrophotometer with distilled water at 400 nm then measure absorbance of the PNP standard against distilled water. The microsomal 4-nitroanisole O-demethylase activity is calculated as follows: Calculation of Results
[formula] • The activity value from the incubation MUST be equal to or greater than 85% of the mean value of the batch used for the incubation to be valid. If this criteria is not met, then the incubation must be repeated. 11. Analyse samples (including no cofactor and no substrate control) by a specific assay for the substrate to determine the disappearance kinetics. Analysis Of Data […]

T1 sequence (P08684 whole entry, canonical isoform): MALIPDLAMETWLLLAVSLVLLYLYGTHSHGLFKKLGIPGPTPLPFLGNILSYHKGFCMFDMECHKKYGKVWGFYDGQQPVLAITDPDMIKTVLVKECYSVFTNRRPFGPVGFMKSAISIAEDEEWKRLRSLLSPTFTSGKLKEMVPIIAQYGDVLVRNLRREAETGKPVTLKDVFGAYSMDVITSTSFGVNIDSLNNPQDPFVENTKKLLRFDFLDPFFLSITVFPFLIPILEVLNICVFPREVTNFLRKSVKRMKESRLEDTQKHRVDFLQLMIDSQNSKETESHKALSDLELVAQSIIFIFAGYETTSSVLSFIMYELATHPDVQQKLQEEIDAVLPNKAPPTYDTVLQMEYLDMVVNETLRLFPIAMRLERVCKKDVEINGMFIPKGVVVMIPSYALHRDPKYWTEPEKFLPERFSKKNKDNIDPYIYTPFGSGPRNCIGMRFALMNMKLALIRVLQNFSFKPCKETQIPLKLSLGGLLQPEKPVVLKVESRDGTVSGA

Row | SMILES | inhibition at 3 μM [1] | microsomal CLint at 1 μM [2]
1 | C[C@@H]1CN(C(=O)[C@@H]2CN(c3ccc(Cl)nn3)C[C@H]2c2ccc(Cl)cn2)C[C@H](C)[C@@]1(O)c1ccccn1 [Example 31] | 60% | 188 µL/min/mg
2 | C[C@@H]1CN(C(=O)[C@@H]2CN(c3ccc(C#N)nn3)C[C@H]2c2ccc(F)cn2)C[C@H](C)[C@@]1(O)c1ccc(Cl)cc1 [Example 32] | 31% | 8 µL/min/mg
3 | CC1CN(C(=O)C2CN(c3ccc(C#N)nn3)CC2c2ccc(F)cn2)CC(C)C1(O)c1ccccc1 (stereo not drawn) [Example 33] | 19% | 186 µL/min/mg
4 | C[C@@H]1CN(C(=O)[C@@H]2CN(c3ccc(Cl)nn3)C[C@H]2c2ccc(F)cn2)C[C@H](C)[C@@]1(O)c1ccccc1 [Example 35] | 46% | 100 µL/min/mg
5 | CC1CN(C(=O)C2CN(c3ccc(=O)[nH]n3)CC2c2ccc(F)cn2)CC(C)C1(O)c1ccccc1 (stereo not drawn) [Example 37] | 45% | 19.5 µL/min/mg
6 | CC1CN(C(=O)C2CN(c3ccc(=O)n(C)n3)CC2c2ccc(F)cn2)CC(C)C1(O)c1ccccc1 (stereo not drawn) [Example 39] | 30% | 95 µL/min/mg
7 | CC1CN(C(=O)C2CN(c3ccc(=O)n(C)n3)CC2c2ccc(F)cn2)CC(C)C1(O)c1ccc(F)cc1 (stereo not drawn) [Example 40] | 64% | < 7 µL/min/mg

The next lines start with the values.

Row | inhibition at 3 μM [1] | microsomal CLint at 1 μM [2] | SMILES
8 | 52% | 21 µL/min/mg | COc1ccc([C@@H]2CN(c3ccc(=O)[nH]n3)C[C@H]2C(=O)N2C[C@@H](C)[C@](O)(c3ccc(Cl)cn3)[C@@H](C)C2)nc1 [Example 41]
9 | 59% | 25 µL/min/mg | COc1ccc(C2CN(c3ccc(=O)[nH]n3)CC2C(=O)N2CC(C)C(O)(c3ccc(F)cc3)C(C)C2)nc1 (stereo not drawn) [Example 42]
10 | 44% | 37 µL/min/mg | COc1ccc([C@@H]2CN(c3ccc(C#N)nn3)C[C@H]2C(=O)N2C[C@@H](C)[C@](O)(c3ccc(F)cc3)[C@@H](C)C2)nc1 [Example 43]
11 | 69% | < 7 µL/min/mg | CC1CN(C(=O)C2CN(c3ccc(C#N)cn3)CC2c2ccc(C#N)cn2)CC(C)C1(O)c1ccc(F)cc1 (stereo not drawn) [Example 45]
12 | 74% | < 7 µL/min/mg | C[C@@H]1CN(C(=O)[C@@H]2CN(c3ccc(C#N)nn3)C[C@H]2c2ccc(C#N)cn2)C[C@H](C)[C@@]1(O)c1ccc(F)cc1 [Example 46]
